Read-outs that look alike come from different tables or passages of the source. Marks after values point to notes of the source that are not given here.
Key:
[1] = Rat plasma pharmacokinetics at 3 mg-eq/kg i.v.; details: solution formulation 3 mg-eq/kg i.v.
MB-231 (HBC) = test: MTS cell assay (cell proliferation), MB-231; type: cell-based; details: Homo sapiens, 72 hours
Method: Charles River Labs athymic nude mice bearing MDA-MB-231 breast carcinoma cell line subcutaneous xenografts (5×10^6 cells in matrigel) were sacrificed to make a tumor isolate. Using sterile instruments and working aseptically, the tumors were removed from the euthanized animal. The tumor was placed in a 50 mL sterile conical tube and 5 mL of trypsin was added. The tumor was cut into small pieces and incubated at 37° C. for 30 minutes. After incubation, a cell strainer was placed on a second, sterile, 50 mL conical tube and the contents of the first tube were placed in the cell strainer. The tissue was forced through the filter using the flat end of a syringe plunger. The cell strainer was washed with 5 mLs of media containing FBS. The cells were spun down and the supernatant was discarded. The cells were resuspended in 20 mLs of complete media containing P/S and placed in a 75 cm flask.
(§1) Human carcinoma cells (2,000 cells/well) were incubated with the desired concentration of the test molecule (0-200 μM) for 72 hours. The cells were then incubated with MTS solution (Promega) for 1-2 hours, and the compounds effects on cell proliferation was determined by measuring the absorbance at 490 nm. Cell growth was expressed as a percent of the appropriate control (placebo). […] All data reported was the mean±SE of three independent experiments.

H-460 (NSCLC) = test: MTS cell assay (cell proliferation), H-460; type: cell-based; details: Homo sapiens, NCI-H460, 72 hours
Method: as §1

[2] = Tumor efficacy PK group, MB-231 tumor-bearing mice: tumor and plasma levels; details: for Ester level in Plasma at 1 hour / Ester level in Tumor at 1 hour: 80 mg/kg i.v.
Method: (§2) A portion of the tumor bearing mice were dosed as a satellite PK group. Each group was dosed as described for the tumor efficacy group, however the PK group was euthanized and tissue samples collected at 1, 3 and 6 hours post dosing on day 2. The tissues collected included blood, lung, liver and tumor. Samples were analyzed for bendamustine HCl and the corresponding ester analogue as described in the LC-MS protocol section.
(§3) Plasma and other tissues were prepared for high performance liquid chromatography (HPLC)/mass spectrometric analysis according to a standard protocol following protein precipitation with acetonitrile containing an internal standard. The samples were then analyzed for both bendamustine HCl and bendamustine esters of the invention and alprenolol (internal standard) via HPLC coupled with tandem mass spectrometry. Tissue samples were homogenized in sodium phosphate buffer and the value obtained from the assay was multiplied by 3 to correct for dilution during processing.

[3] = Tumor efficacy PK group, H-460 tumor-bearing mice: tumor and plasma levels; details: for Ester level in Plasma at 1 hour / Ester level in Tumor at 1 hour: 80 mg/kg i.v.
Method: The formulations were administrated as 100 μL dose volume through tail vein injection within 30 minutes after compounds were formulated. All the mice were weighed and tumors measured twice weekly. At the last day of the study, plasma, tumor, lung, liver, spleen, left kidney, brain and legs were collected and quickly frozen for further analysis two hours post-dosing.
as §2, §3

[4] = test system: RPMI 8226 (Human Plasmacytoma, Myeloma B Cells); type: in vivo, CB.17 SCID female mice; details: day 46
Method: RPMI 8226 (Human Plasmacytoma, Myeloma B Cells) ATCC #CCL-155;
80 CB.17 SCID female mice, 4-6 weeks old, 16-20 grams, obtained from Harlan animal breeding center
Cells (originated from ATCC) were cultured on RPMI medium. Cell suspension was centrifuged and resuspended in 50% Matrigel/HBSS to a final concentration of 7×10^7 cells/ml. The suspension was implanted s.c. in the right flank of the anesthetized mouse at a volume of 100 μl.
Seven ml saline were added to the original vial containing 3.5 mg powder resulting in 0.5 mg/ml. Three ml of this solution were added to 27 ml saline to receive 0.05 mg/ml concentration.
bendamustine preparation: 13.5 mg was dissolved in 3.6 ml of 1:1 mixture of 0.9% saline/5% mannitol just before the treatment. 1.05 ml of this solution was added to 0.95 ml diluent for 2 mg/ml solution.
1.05 ml of this solution was added to 0.95 ml diluent for 2 mg/ml solution.
On day 21, mice were sorted by the optimal average tumor volume (˜150 mm^3) and were allocated into eight groups of 9 mice each.
[formula] The analysis of weight gain and tumor volume progression was made using one-way ANOVA followed by Tukey post-hoc comparisons. Results

[5] = test system: H460 tumor cells (large cell lung cancer); test: Nude mouse H460 tumor efficacy study; type: in vivo, nu/nu mouse
Method: 2×10^6 cells/100 ul in the mix of medium and Matrigel (1:1 ratio) solution was injected into right back flank of each nu/nu mouse. The implanted mice were monitored and measured with electric calipers. The study started when the tumors reached ˜150 mm^3 in size. The mice were measured and randomized into 9 groups with 10 mice in each group per the below table: […]

MDA-MB-231 xenografts = test: Nude mouse MDA-MB-231 tumor efficacy study; type: in vivo, athymic nude mice
Method: Charles River Labs athymic nude mice were subcutaneous injected with 5×10^6 human tumor cells in matrigel. The tumor volume was monitored until an average tumor size of ˜150 mm^3 was obtained in the mouse population The mice were then randomized in to one of the nine treatment groups (summarized in table below) with a population of 10 mice per group (n=10). Each of the formulations was dosed at 100 μL fixed volume via tail vein injection on day 1 and day 2 of the study. Mice were weighed and the tumor volume measured every 3-4 days for 3 weeks of the study duration.

[6] = Solution, 37.5 mg/kg i.v. day 1 and 2
[7] = HSA nanoparticle, 80 mg/kg i.v.
[8] = HSA nanoparticle, 80 mg/kg i.v. day 1 and 2
[9] = Solution, 80 mg/kg i.v. day 1 and 2

## Cn1c(CCCC(=O)OC2CCCCC2)nc2cc(N(CCCl)CCCl)ccc21 [Cy-hexyl bendamustine ester, 4-{5-[Bis-(chloroethyl)-amino]-1-methyl-1H-benzimidazol-2-yl}butyric acid cyclohexyl ester]
[1]
  Plasma levels of the dosed Ester: All < MQL

## CCCCCCCCOC(=O)CCCc1nc2cc(N(CCCl)CCCl)ccc2n1C [bendamustine C8 ester, 4-{5-[Bis-(chloroethyl)-amino]-1-methyl-1H-benzimidazol-2-yl}butyric aid octyl ester]
MB-231 (HBC)
  IC50: 53.1 µM
H-460 (NSCLC)
  IC50: 49 µM

## CCCCCC(CCCC)OC(=O)CCCc1nc2cc(N(CCCl)CCCl)ccc2n1C (stereo not shown) [5-decanyl ester, 4-{5-[Bis-(chloroethyl)-amino]-1-methyl-1H-benzimidazol-2-yl}butyric acid 5-decyl ester]
[1]
  Plasma levels of the dosed Ester: All < MQL

## Cn1c(CCCC(=O)O)nc2cc(N(CCCl)CCCl)ccc21 [Bendamustine, 4-[5-[bis(2-chloroethyl)amino]-1-methylbenzimidazol-2-yl]butanoic acid]
[2]; Solution, 37.5 mg/kg i.v.
  BM1 level in Plasma at 1 hour: 906 ng/mL
  BM1 level in Tumor at 1 hour: 558 ng/mL
[3]; Solution, 37.5 mg/kg i.v.
  BM1 level in Plasma at 1 hour: 1550 ng/mL
  BM1 level in Tumor at 1 hour: 1472 ng/mL
[4]; 20 mg/kg iv on days 1 and 2
  % TGI: 66*** %
  No. of CR: 0
  No. of PR: 0
  Δ mean tumor volume, (mean ± se): 205 ± 44
[4]; 37.5 mg/kg iv on days 1 and 2
  No. of CR: 0
  No. of PR: 0
  Δ mean tumor volume, (mean ± se): 113 ± 23
[4]; 37.5 mg/kg iv on days 1 and 2, 37.5 mg/kg
  % TGI: 81%
[5]; Solution, 37.5 mg/kg i.v.
  % Morbidity: 0/0%
  % Mortality: 0/0%
MDA-MB-231 xenografts; [6]
  % Morbidity: 10%
  % Mortality: 0%
  % Tumor Inh.: 77%

## CCCCCCCCCCCCCCOC(=O)CCCc1nc2cc(N(CCCl)CCCl)ccc2n1C [bendamustine C14 ester, 4-{5-[Bis-(chloroethyl)-amino]-1-methyl-1H-benzimidazol-2-yl}butyric acid tetradecyl ester]
[2]; HSA nanoparticle
  Ester level in Plasma at 1 hour: 5727 ng/mL
  Ester level in Tumor at 1 hour: 10430 ng/mL
[2]; Solution
  Ester level in Plasma at 1 hour: 14 ng/mL
  Ester level in Tumor at 1 hour: 396 ng/mL
[3]; HSA nanoparticle
  Ester level in Plasma at 1 hour: 3648 ng/mL
  Ester level in Tumor at 1 hour: 4570 ng/mL
[3]; Solution
  Ester level in Plasma at 1 hour: 32233 ng/mL
  Ester level in Tumor at 1 hour: 8570 ng/mL
[5]; [7]
  % Morbidity: 10%
  % Mortality: 0%
  % Tumor Inh.: 40%
[5]; Solution, 80 mg/kg i.v.
  % Morbidity: 100%
  % Mortality: 40%
  % Tumor Inh.: 81%
MDA-MB-231 xenografts; [8]
  % Morbidity: 60%
  % Mortality: 0%
MDA-MB-231 xenografts; [9]
  % Morbidity: 40%
  % Mortality: 0%
  % Tumor Inh.: 90%
